Values quoted from earlier work as cited in patent publication US20190290635A1, “METHODS OF TREATING BRAIN CANCER USING AGENTS THAT ALTER ACTIVITY OF A METABOLIC PATHWAY” (Clear Creek Bio, Inc., priority 2018, published 2019).

Key:
[1] = 43 patients; patient with papillary carcinoma of the thyroid; cited from earlier work
[2] = 650 mg/m^2 brequinar (days 1, 8 and 15) with 75 mg/m^2 cisplatin (day 1); cited from earlier work

## Cc1c(-c2ccc(-c3ccccc3F)cc2)nc2ccc(F)cc2c1C(=O)O [Brequinar sodium]
[1]
  tumor response observed: One mixed response

## Cc1c(-c2ccc(-c3ccccc3F)cc2)nc2ccc(F)cc2c1C(=O)O [Brequinar, 6-fluoro-2-(2′-fluoro-1,1′ biphenyl-4-yl)-3-methyl-4-quinoline carboxylic acid]
[2]
  modification of individual drug pharmacokinetic parameters in combination with cisplatin: without significant modifications
